Read-outs that look alike come from different tables or passages of the source.
How the values were obtained:
Assay in all cases: biochemical
Type in all cases: binding
[1] = molecular target: panel of 468 diverse kinases (Homo sapiens, UniProt O00444); settings: PLK4; 1000 nM; read-out: Percent Control
[2] = molecular target: panel of 468 diverse kinases (Homo sapiens, UniProt O75460); settings: ERN1; 1000 nM; read-out: Percent Control
[3] = molecular target: panel of 468 diverse kinases (Homo sapiens, UniProt O75582); settings: 1000 nM, read-out: Percent Control
[4] = molecular target: panel of 468 diverse kinases (Homo sapiens, UniProt P00519, M351T); settings: ABL1(M351T)-phosphorylated; 1000 nM; read-out: Percent Control
[5] = molecular target: panel of 468 diverse kinases (Homo sapiens, UniProt P00519, T315I); settings: 1000 nM, read-out: Percent Control
[6] = molecular target: panel of 468 diverse kinases (Homo sapiens, UniProt P00533, L861Q); settings: EGFR(L861Q); 1000 nM; read-out: Percent Control
[7] = molecular target: panel of 468 diverse kinases (Homo sapiens, UniProt P07949, M918T); settings: RET(M918T); 1000 nM; read-out: Percent Control
[8] = molecular target: panel of 468 diverse kinases (Homo sapiens, UniProt P10721, V559D); settings: KIT(V559D); 1000 nM; read-out: Percent Control
[9] = molecular target: panel of 468 diverse kinases (Homo sapiens, UniProt P11802); settings: 1000 nM, read-out: Percent Control
[10] = molecular target: panel of 468 diverse kinases (Homo sapiens, UniProt P24723); settings: PRKCH; 1000 nM; read-out: Percent Control
[11] = molecular target: panel of 468 diverse kinases (Homo sapiens, UniProt P36888, D835H); settings: FLT3(D835H); 1000 nM; read-out: Percent Control
[12] = molecular target: panel of 468 diverse kinases (Homo sapiens, UniProt P36888, R834Q); settings: FLT3(R834Q); 1000 nM; read-out: Percent Control
[13] = molecular target: panel of 468 diverse kinases (Homo sapiens, UniProt P42336); settings: PIK3CA; 1000 nM; read-out: Percent Control
[14] = molecular target: panel of 468 diverse kinases (Homo sapiens, UniProt P49336); settings: CDK8; 1000 nM; read-out: Percent Control
[15] = molecular target: panel of 468 diverse kinases (Homo sapiens, UniProt P54762); settings: EPHB1; 1000 nM; read-out: Percent Control
[16] = molecular target: panel of 468 diverse kinases (Homo sapiens, UniProt Q04771); settings: ACVR1; 1000 nM; read-out: Percent Control
[17] = molecular target: panel of 468 diverse kinases (Homo sapiens, UniProt Q07912); settings: TNK2; 1000 nM; read-out: Percent Control
[18] = molecular target: panel of 468 diverse kinases (Homo sapiens, UniProt Q13131); settings: AMPK-alpha1; 1000 nM; read-out: Percent Control
[19] = molecular target: panel of 468 diverse kinases (Homo sapiens, UniProt Q13627); settings: DYRKIV; 1000 nM; read-out: Percent Control
[20] = molecular target: panel of 468 diverse kinases (Homo sapiens, UniProt Q14004); settings: read-out: Percent Control
[21] = molecular target: panel of 468 diverse kinases (Homo sapiens, UniProt Q6ZN16); settings: MAP3K15; 1000 nM; read-out: Percent Control
[22] = molecular target: panel of 468 diverse kinases (Homo sapiens, UniProt Q86UX6); settings: YANK3; 1000 nM; read-out: Percent Control
[23] = molecular target: panel of 468 diverse kinases (Homo sapiens, UniProt Q8N568); settings: DCAMKL2; 1000 nM; read-out: Percent Control
[24] = molecular target: panel of 468 diverse kinases (Homo sapiens, UniProt Q9BZL6); settings: PRKD2; 1000 nM; read-out: Percent Control
[25] = molecular target: panel of 468 diverse kinases (Homo sapiens, UniProt Q9HAZ1); settings: CLK4; 1000 nM; read-out: Percent Control
[26] = molecular target: panel of 468 diverse kinases (Homo sapiens, UniProt Q9HBY8); settings: SGK2; 1000 nM; read-out: Percent Control
[27] = molecular target: panel of 468 diverse kinases (Homo sapiens, UniProt Q9UBE8); settings: NLK; 1000 nM; read-out: Percent Control
[28] = molecular target: panel of 468 diverse kinases (Homo sapiens, UniProt Q9UKI8); settings: TLK1; 1000 nM; read-out: Percent Control
[29] = molecular target: panel of 468 diverse kinases (Homo sapiens, UniProt Q9UQB9); settings: AURKC; 1000 nM; read-out: Percent Control
[30] = molecular target: panel of 468 diverse kinases (Homo sapiens, UniProt Q9Y5S2); settings: MRCKB; 1000 nM; read-out: Percent Control

panel of 468 diverse kinases (Homo sapiens, UniProt P11802), sequence (P11802 2-303 limits assumed): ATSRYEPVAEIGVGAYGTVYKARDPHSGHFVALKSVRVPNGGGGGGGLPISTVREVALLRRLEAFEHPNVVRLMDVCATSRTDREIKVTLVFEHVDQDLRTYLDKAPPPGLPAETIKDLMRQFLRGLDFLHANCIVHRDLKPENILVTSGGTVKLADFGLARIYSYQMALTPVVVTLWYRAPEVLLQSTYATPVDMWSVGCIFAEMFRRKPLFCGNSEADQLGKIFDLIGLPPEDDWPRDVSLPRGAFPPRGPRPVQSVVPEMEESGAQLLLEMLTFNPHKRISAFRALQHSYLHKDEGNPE
panel of 468 diverse kinases (Homo sapiens, UniProt P07949, M918T), sequence (P07949 29-1114 M918T limits assumed): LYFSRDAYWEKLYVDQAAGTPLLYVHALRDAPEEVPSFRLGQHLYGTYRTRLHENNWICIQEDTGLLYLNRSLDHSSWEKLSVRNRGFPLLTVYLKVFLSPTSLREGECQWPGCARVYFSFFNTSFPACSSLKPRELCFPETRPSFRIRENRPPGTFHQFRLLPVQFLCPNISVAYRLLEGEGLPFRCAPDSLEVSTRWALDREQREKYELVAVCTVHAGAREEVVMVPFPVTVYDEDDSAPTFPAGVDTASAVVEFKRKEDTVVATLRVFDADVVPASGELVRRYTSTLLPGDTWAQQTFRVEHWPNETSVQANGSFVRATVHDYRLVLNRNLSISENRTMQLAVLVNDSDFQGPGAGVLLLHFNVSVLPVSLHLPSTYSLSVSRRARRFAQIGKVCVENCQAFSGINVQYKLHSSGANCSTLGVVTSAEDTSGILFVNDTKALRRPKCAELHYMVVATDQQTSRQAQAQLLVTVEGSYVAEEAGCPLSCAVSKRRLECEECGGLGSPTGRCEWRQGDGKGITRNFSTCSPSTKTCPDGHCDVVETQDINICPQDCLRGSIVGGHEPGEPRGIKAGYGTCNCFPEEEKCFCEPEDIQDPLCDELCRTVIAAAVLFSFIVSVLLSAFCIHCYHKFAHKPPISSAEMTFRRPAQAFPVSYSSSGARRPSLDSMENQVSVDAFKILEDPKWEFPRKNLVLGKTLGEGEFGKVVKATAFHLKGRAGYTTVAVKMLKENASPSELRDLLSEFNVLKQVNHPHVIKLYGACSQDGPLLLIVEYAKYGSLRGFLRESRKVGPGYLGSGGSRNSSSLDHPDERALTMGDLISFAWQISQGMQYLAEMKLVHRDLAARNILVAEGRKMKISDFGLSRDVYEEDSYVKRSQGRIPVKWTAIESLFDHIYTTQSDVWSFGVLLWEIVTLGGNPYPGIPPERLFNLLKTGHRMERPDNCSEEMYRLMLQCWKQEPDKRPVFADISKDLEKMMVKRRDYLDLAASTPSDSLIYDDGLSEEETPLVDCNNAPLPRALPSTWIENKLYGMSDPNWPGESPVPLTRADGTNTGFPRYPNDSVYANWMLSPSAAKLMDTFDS
panel of 468 diverse kinases (Homo sapiens, UniProt Q04771), sequence (Q04771 21-509 limits assumed): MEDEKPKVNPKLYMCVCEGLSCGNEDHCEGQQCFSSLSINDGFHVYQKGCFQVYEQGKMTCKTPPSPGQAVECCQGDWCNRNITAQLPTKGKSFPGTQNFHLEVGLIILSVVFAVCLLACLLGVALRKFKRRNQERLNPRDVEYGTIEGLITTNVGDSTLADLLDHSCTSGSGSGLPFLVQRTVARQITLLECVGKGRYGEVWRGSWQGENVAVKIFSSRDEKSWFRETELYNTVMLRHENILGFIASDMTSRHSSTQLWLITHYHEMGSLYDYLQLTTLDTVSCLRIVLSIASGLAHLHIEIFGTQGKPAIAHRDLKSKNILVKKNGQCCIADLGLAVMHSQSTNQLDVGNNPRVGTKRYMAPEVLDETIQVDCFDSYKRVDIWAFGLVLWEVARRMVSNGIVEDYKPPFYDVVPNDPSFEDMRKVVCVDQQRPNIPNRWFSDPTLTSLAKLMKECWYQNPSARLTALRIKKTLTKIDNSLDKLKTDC
panel of 468 diverse kinases (Homo sapiens, UniProt O75460), sequence (O75460 19-977 limits assumed): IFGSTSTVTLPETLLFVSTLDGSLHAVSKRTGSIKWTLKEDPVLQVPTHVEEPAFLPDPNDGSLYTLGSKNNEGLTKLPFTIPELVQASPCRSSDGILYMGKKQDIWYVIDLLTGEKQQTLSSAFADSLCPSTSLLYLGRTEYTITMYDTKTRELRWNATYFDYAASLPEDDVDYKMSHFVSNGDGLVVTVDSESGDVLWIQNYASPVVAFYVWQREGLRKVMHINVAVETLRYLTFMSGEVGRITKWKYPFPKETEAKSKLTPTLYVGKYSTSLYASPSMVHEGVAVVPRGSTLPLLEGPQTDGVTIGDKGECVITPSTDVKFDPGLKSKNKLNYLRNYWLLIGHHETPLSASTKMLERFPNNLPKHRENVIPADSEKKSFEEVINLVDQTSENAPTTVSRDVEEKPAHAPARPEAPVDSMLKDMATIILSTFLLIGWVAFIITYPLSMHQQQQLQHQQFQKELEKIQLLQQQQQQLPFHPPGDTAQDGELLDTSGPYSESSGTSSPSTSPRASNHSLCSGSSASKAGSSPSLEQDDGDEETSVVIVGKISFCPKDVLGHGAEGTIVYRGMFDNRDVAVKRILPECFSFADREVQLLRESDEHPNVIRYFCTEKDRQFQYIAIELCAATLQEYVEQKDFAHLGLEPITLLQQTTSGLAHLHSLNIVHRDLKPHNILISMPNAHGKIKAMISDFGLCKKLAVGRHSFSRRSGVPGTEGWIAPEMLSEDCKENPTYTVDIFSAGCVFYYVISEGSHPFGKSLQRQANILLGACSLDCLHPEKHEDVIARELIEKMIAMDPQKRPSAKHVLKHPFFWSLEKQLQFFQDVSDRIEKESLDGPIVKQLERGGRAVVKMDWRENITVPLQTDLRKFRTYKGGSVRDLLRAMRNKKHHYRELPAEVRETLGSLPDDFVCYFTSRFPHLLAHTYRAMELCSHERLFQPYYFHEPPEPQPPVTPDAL
panel of 468 diverse kinases (Homo sapiens, UniProt P10721, V559D), sequence (P10721 26-976 V559D limits assumed): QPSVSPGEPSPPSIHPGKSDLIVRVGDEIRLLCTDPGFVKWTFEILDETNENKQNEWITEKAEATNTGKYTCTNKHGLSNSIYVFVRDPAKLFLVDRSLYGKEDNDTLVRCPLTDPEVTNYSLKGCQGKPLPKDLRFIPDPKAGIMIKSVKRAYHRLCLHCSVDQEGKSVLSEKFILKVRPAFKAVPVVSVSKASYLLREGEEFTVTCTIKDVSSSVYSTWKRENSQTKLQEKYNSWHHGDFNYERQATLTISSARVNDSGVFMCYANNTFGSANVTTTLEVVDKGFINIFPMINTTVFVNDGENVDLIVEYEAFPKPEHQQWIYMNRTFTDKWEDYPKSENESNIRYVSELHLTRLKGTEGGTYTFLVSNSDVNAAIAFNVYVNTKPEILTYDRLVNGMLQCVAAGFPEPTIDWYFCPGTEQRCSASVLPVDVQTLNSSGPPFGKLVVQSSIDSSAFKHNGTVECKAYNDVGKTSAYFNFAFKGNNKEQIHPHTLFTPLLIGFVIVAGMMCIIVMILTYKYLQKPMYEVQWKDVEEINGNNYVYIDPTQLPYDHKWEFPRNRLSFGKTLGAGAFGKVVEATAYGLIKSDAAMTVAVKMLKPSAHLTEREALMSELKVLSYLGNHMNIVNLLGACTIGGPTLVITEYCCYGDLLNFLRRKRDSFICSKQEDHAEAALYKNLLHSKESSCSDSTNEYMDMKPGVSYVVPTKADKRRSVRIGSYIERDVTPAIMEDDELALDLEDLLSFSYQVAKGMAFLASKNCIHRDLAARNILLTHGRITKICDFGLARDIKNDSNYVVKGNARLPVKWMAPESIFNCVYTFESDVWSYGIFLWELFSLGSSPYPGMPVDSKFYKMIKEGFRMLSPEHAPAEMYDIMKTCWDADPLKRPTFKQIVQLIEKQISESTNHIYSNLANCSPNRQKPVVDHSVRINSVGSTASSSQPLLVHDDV
panel of 468 diverse kinases (Homo sapiens, UniProt P00533, L861Q), sequence (P00533 25-1210 L861Q limits assumed): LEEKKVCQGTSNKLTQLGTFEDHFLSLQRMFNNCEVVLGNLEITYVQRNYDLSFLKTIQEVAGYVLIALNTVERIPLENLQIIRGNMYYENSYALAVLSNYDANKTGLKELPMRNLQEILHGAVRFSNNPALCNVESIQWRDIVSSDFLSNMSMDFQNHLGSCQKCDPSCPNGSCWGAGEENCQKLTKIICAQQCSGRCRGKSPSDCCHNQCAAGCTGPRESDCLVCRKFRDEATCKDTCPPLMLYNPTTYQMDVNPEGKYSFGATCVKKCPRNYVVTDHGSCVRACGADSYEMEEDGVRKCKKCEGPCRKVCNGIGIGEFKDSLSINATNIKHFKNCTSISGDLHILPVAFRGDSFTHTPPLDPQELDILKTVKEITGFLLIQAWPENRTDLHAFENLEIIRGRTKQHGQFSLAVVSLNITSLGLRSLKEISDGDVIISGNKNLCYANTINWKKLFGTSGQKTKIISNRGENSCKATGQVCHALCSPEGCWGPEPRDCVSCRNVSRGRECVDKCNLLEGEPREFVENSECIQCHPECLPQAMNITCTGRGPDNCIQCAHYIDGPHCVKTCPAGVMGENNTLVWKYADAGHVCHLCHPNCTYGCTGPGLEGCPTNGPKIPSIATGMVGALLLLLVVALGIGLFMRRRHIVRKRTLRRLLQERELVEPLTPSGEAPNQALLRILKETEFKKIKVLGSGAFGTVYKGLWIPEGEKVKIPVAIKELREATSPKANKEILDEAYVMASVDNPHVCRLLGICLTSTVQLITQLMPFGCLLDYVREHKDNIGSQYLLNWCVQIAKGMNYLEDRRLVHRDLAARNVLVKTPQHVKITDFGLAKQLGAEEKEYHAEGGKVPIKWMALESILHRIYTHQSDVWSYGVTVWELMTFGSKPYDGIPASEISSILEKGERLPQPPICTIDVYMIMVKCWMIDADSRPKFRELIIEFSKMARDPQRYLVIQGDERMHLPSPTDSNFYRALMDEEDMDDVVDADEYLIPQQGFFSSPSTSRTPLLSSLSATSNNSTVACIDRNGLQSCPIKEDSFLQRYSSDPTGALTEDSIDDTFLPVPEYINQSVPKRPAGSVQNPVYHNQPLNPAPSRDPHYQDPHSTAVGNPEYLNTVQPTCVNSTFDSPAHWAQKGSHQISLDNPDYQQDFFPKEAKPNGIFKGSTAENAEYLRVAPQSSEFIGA

COc1cc2nc(NC3CC3)nc(NC3CCN(C(C)C)CC3)c2cc1OC [Formula IV]
remaining activity at 1 µM [1]: 58% | remaining activity at 1 µM [2]: 33% | remaining activity at 1 µM ([3]; RPS6KA5(Kin.Dom.1-N-terminal)): 75% | remaining activity at 1 µM ([3]; RPS6KA5(Kin.Dom.2-C-terminal)): 100% | remaining activity at 1 µM [4]: 59% | remaining activity at 1 µM ([5]; ABL1(T315I)-nonphosphorylated): 100% | remaining activity at 1 µM ([5]; ABL1(T315I)-phosphorylated): 49% | remaining activity at 1 µM [6]: 75% | remaining activity at 1 µM [7]: 85% | remaining activity at 1 µM [8]: 100% | remaining activity at 1 µM ([9]; CDK4-cyclinD1): 67% | remaining activity at 1 µM ([9]; CDK4-cyclinD3): 54% | remaining activity at 1 µM ([9]; CDK4): 62% | remaining activity at 1 µM [10]: 81% | remaining activity at 1 µM [11]: 81% | remaining activity at 1 µM [12]: 40% | remaining activity at 1 µM [13]: 97% | remaining activity at 1 µM [14]: 96% | remaining activity at 1 µM [15]: 89% | remaining activity at 1 µM [16]: 100% | remaining activity at 1 µM [17]: 100% | remaining activity at 1 µM [18]: 92% | remaining activity at 1 µM [19]: 60% | remaining activity at 1 µM [20]: 55% | remaining activity at 1 µM [21]: 52% | remaining activity at 1 µM [22]: 94% | remaining activity at 1 µM [23]: 90% | remaining activity at 1 µM [24]: 64% | remaining activity at 1 µM [25]: 69% | remaining activity at 1 µM [26]: 64% | remaining activity at 1 µM [27]: 100% | remaining activity at 1 µM [28]: 90% | remaining activity at 1 µM [29]: 100% | remaining activity at 1 µM [30]: 92%

Reference: patent US11542240B2, “STK19 inhibitors for treatment of cancer” (TRUSTEES OF BOSTON UNIVERSITY, priority 2018, dated 2023)
